Data from PubChem BioAssay AID2305 (GlaxoSmithKline (GSK), 2010).

Tested on: P. falciparum 3D7 growth, pLDH absorbance
Experiment: P. falciparum 3D7 growth inhibition, dose response, strain 3D7 (AID 2305)

Point of comparison: COc1ccc(CNC2CCN(C)CC2)cc1-c1ccc(S(=O)(=O)NCCc2ccccn2)s1, IC50 620 nM. Against it:
- CCN(CC)Cc1ccc2c(=O)cc(CCc3cccc(F)c3F)n(CC(=O)N(Cc3ccc(-c4ccc(C(F)(F)F)cc4)cc3)C(C)C)c2c1 — within 1.5-fold, 780 nM
- CCNc1cc(CC)nc(Nc2ccc(C)cc2)n1 — within 1.5-fold, 850 nM
- CC(C)CN1C(=O)C(c2ccc(F)c(F)c2)=C(O)C1c1ccccc1 (configuration not stated) — 3.3-fold lower, 190 nM
- CCN(CC)C(=O)C(=O)c1c[nH]c2ccc(Cl)cc12 — 7.8-fold lower, 80 nM
- O=C(Nc1ccc(C(F)(F)F)cc1)c1cccc(S(=O)(=O)NC2CCN(Cc3ccccc3)C2)c1 (configuration not stated) — 1.7-fold higher, 1050 nM
- CCN1CCN(c2ccc(NC(=O)c3cc4c(C)nn(-c5ccccc5)c4s3)cc2C)CC1 — within 1.5-fold, 760 nM
- COc1ccc(NC(=O)/C=C/c2ccccc2Cl)cc1OCCN1CCC(N2CCN(C)CC2)CC1 — within 1.5-fold, 490 nM
- O=C(/C=C/c1ccc(Cl)c(Cl)c1)NCCCCCN1CCCC(C(=O)Nc2cccc(Cl)c2)C1 (configuration not stated) — within 1.5-fold, 900 nM
- COc1ccc(NC(=O)/C=C/c2ccccc2Cl)cc1OCCN1CCC(NCc2cccnc2)CC1 — within 1.5-fold, 760 nM
- NC(N)=NN=Cc1c[nH]c2ccc(-c3ccccc3)cc12 — within 1.5-fold, 530 nM
- CCN(CCN(C)C)Cc1ccc(-c2ccc(NS(=O)(=O)c3cccc4cccnc34)cc2)cc1 — 1.5-fold higher, 930 nM
- CCOC(=O)c1cn(CC)c2cc(O[C@H]3CCN(C(=O)OC(C)(C)C)C3)ccc2c1=O — within 1.5-fold, 550 nM
- Nc1ccc(-c2nc3ccc(Cc4ccc5nc(-c6ccc(N)cc6)[nH]c5c4)cc3[nH]2)cc1 — within 1.5-fold, 510 nM
- CCc1cn2c3c(cc(C(=O)N[C@@H](Cc4ccccc4)[C@H](O)CNC(C)C)cc13)N(C)S(=O)(=O)C2 — 1.9-fold lower, 320 nM
- CNC(=O)c1c(NC(=O)c2cccs2)sc2c1CCCC2 — within 1.5-fold, 820 nM
- O=C(Nc1ccc(-c2ccc(-c3nc4ccc(C(F)(F)F)cc4[nH]3)s2)cc1)c1cnc[nH]1 — within 1.5-fold, 670 nM
- O=C(/C=C/c1ccc([N+](=O)[O-])cc1)N1CCC(NS(=O)(=O)c2ccc(F)cc2)CC1 — within 1.5-fold, 820 nM
- O=C(NCCCCCCNCc1ccc(-c2ccccc2)cc1)Nc1ccc(Cl)c(Cl)c1 — 1.5-fold higher, 960 nM
- Oc1ccccc1CN1CCCC(COC(c2ccc(F)cc2)c2ccc(F)cc2)C1 (configuration not stated) — within 1.5-fold, 780 nM
- COc1cccc(Nc2nc(Nc3cccc(C#N)c3)cc(C(F)(F)F)n2)c1 — within 1.5-fold, 830 nM
- CCC[C@@H]([C@@H](CC1CCCCC1)C(=O)N[C@H](C(=O)Nc1nccs1)[C@H](C)O)N(O)C=O — 4.1-fold lower, 150 nM
- CCCN1CCC=C(c2cccc(Nc3nccc(Nc4cc(OC)ccc4C)n3)c2)C1 — 1.7-fold higher, 1040 nM
- CCNc1cc(C(=O)N[C@@H](Cc2ccccc2Cl)[C@H](O)CNC2CCCCC2)cc(N2CCCCS2(=O)=O)c1 — within 1.5-fold, 800 nM
- O=C(NCCN1CCCC1)c1cccc(-c2ccc(-c3nc4ccc(F)cc4[nH]3)s2)c1 — 2.5-fold higher, 1530 nM
- COC(=O)c1ccc(CCC(C)NCC(O)c2cccc(C(F)(F)F)c2)cc1 (configuration not stated) — 1.5-fold lower, 410 nM
- CCNc1cc(C(=O)N[C@@H](Cc2ccccc2)[C@H](O)CNC2(CC(C)C)CC2)cc(N2CCCCS2(=O)=O)c1 — 1.6-fold higher, 1020 nM
- COc1ccccc1-c1ccc2nnc(SCC(=O)Nc3ccc4c(c3)OCCO4)n2n1 — within 1.5-fold, 720 nM
- CCNc1cc(C(=O)N[C@@H](Cc2ccccc2)[C@H](O)CNCCc2cc(OC)cc(OC)c2)cc(N2CCCCS2(=O)=O)c1 — 1.8-fold higher, 1140 nM
- CC(C)(C)c1ccc(CN(C[C@@H](O)CNS(=O)(=O)c2cc(Cl)cc(Cl)c2)C(C)(C)C)cc1 — 1.5-fold higher, 930 nM
- CC(C)C[C@H](NC(=O)c1ccc(OCCN2CCOCC2)cc1)C(=O)N[C@H](/C=N/N1CC(=O)NC1=O)CCc1ccccc1 — 2.2-fold lower, 280 nM
- CCOC(=O)c1ccc(N2CCCCC2)c(NC(=O)C(Cl)(Cl)Cl)c1 — within 1.5-fold, 850 nM
- CC(C)Nc1cc(C(=O)N[C@@H](Cc2ccccc2)[C@H](O)CNC2CCOCC2)c(F)c(N2CCCCS2(=O)=O)c1 — 3.4-fold lower, 180 nM
- Oc1ccc(Nc2nc(NCc3ccccc3)c3ccccc3n2)cc1 — 3.3-fold lower, 190 nM
- O=C(Nc1ccc(Cn2nc(Cl)c(N3CCNCC3)cc2=O)cc1)Nc1ccc(-c2ccccc2)cc1 — within 1.5-fold, 750 nM
- O=C(NC(=Cc1cccc([N+](=O)[O-])c1)c1nc2ccccc2[nH]1)c1cccc(Br)c1 — the same, 620 nM
- CN1CCN(c2ccc(Nc3nc(N)c4ccn(C5CCC5)c4n3)cc2)CC1 — 2-fold higher, 1220 nM
- CN(C)CCNC(=O)[C@H](Cc1ccccc1)NC(=O)c1ccc(O)c(-c2ccc(Cl)c(Cl)c2)c1 — within 1.5-fold, 710 nM
- Cc1nc(N2CCC(C)CC2)c2c3c(sc2n1)CCCC3 — 1.7-fold higher, 1060 nM
- CCC1(C)CC(CCNCc2ccccc2O)(c2ccc(C)cc2)CCO1 (configuration not stated) — 16-fold lower, 40 nM
- Cn1ncc2c3c(CCN4CCC(NCc5cc6c(cn5)OCCO6)CC4)c(Cl)cnc3ccc21 — within 1.5-fold, 770 nM
- O=C(Nc1ccc(Cl)cc1Cl)NC1CCN(CCCCCNC(=O)[C@@H]2C[C@H]2c2ccc(Cl)c(Cl)c2)CC1 — 1.7-fold lower, 370 nM
- CCN(CCC1(c2ccc(Cl)c(Cl)c2)CN(C(=O)c2cc(OC)c(OC)c(OC)c2)CCO1)[C@@H]1C[C@@H]2c3ccccc3C[C@@H]21 (some centres not stated) — within 1.5-fold, 430 nM
- C#C[C@H]1O[C@@H](n2cnc3c(Nc4cc(Br)cc(C(F)(F)F)c4)ncnc32)[C@H](O)[C@@H]1O — 1.7-fold higher, 1030 nM
- CC(CCNc1c2ccccc2nc2ccccc12)N1CCN(C)CC1 (configuration not stated) — within 1.5-fold, 800 nM
- c1cc(CN2CCCCC2)cc(-c2ccc(-c3nc4ccccc4[nH]3)s2)c1 — within 1.5-fold, 870 nM
- CCCC1(NC[C@@H](O)[C@H](Cc2ccccc2)NC(=O)c2cc(NCC)cc(N3CCCCS3(=O)=O)c2)CCCC1 — within 1.5-fold, 500 nM
- COc1ccc(N(c2nc(-c3cc(Cl)ccc3Cl)cs2)C2CCNC2)cc1 (configuration not stated) — within 1.5-fold, 870 nM
- COc1ccc(CN2CCN(CCOC(c3ccccc3)c3ccc(Cl)cc3)CC2)c(O)c1 (configuration not stated) — within 1.5-fold, 710 nM
- O=c1ccc(CNc2nc(NCCc3ccccc3)nc3cc(Cl)ccc23)c[nH]1 — 2.1-fold lower, 300 nM
- O=C(Nc1ccccc1Cl)c1cc2ccccc2cc1O — 1.6-fold higher, 1010 nM
- NS(=O)(=O)c1cccc(Nc2nccc(-c3cnn4ncccc34)n2)c1 — within 1.5-fold, 660 nM
- O=C(C=Cc1ccc(Cl)c(Cl)c1)NC1CCN(CCc2ccccc2)CC1 — within 1.5-fold, 590 nM
- COc1ccc2ncc(F)c(CCN3C[C@H](CNCc4ccccc4)[C@H](O)C3)c2n1 — within 1.5-fold, 910 nM
- CNCCCCCCOc1ccc(CC(C)NCC(O)c2cccc(C(F)(F)F)c2)cc1 (configuration not stated) — within 1.5-fold, 880 nM
- Cc1[nH]c(C)c(-c2ccc(-c3ccc(Cl)cc3)nc2)c(=O)c1Br — 5.6-fold lower, 110 nM
- O=C(c1ccc(-c2cccc(-c3nc4ccc(C(F)(F)F)cc4[nH]3)c2)cc1)N1CCCCC1CN1CCC(O)C1 (configuration not stated) — within 1.5-fold, 650 nM
- CC[C@H]1CN2CC[C@H]1C[C@H]2[C@H](O)c1ccnc2ccc(OC)cc12 — 4.1-fold lower, 150 nM
- COCCOCCOCCn1ccc2c3c(N)nc(N)nc3ccc21 — 2.4-fold lower, 260 nM
- Cc1cccc2[nH]c(-c3ccc(-c4ccc(NC(=O)N[C@@H]5C[C@H]5c5ccccc5)cc4)cc3)nc12 — within 1.5-fold, 880 nM
- CC(C)CNCc1ccc(OCc2cccc(COc3ccc(CNCC(C)C)cc3I)c2)c(I)c1 — within 1.5-fold, 770 nM
- Cc1cc2c(cc1C(F)(F)F)N(C(=O)Nc1ccc(OCCN(C)C)c(C(F)(F)F)c1)CC2 — within 1.5-fold, 910 nM
- COc1ccc2nc(C)cc(NN=Cc3ccccc3F)c2c1 — 1.7-fold lower, 370 nM
- CC(C)(C)Nc1cc(C2CC2)nc(-c2ccccn2)n1 — within 1.5-fold, 680 nM
- c1cc(-c2ccc(CNCCc3ccncc3)cc2)cc(-c2nc3ccccc3[nH]2)c1 — 4.4-fold lower, 140 nM
- Cc1cc(N[C@@H](CC(C)C)C(=O)NC2CCCC2)nc(NCc2ccccc2C)n1 — 2.2-fold higher, 1340 nM
- CC12CN3CC(C)(CN(C1)C3c1cc(Br)ccc1O)C2O (configuration not stated) — 2.7-fold lower, 230 nM
- O=C(NC1CCN(Cc2ccccc2)CC1)c1ccc2c(=O)n(Cc3ccc(Cl)cc3)c(=S)[nH]c2c1 — 1.6-fold higher, 1000 nM
- Cc1cc(Nc2ccnc(-c3ccc(Cl)cc3)n2)ccn1 — 1.7-fold higher, 1040 nM
- CC(C)Cn1c(Sc2ccc(C#N)c([N+](=O)[O-])c2)nnc1-c1ccccc1 — 1.8-fold higher, 1090 nM
- NC(N)=NN=CC(=O)Nc1cc([N+](=O)[O-])cc([N+](=O)[O-])c1 — within 1.5-fold, 630 nM
- CCc1cn2c3c(cc(C(=O)N[C@@H](Cc4ccccc4)[C@H](O)CNC4CCOCC4)cc13)N(C(C)C)S(=O)(=O)CC2 — 7.8-fold lower, 80 nM
- COc1cc(-n2cnc3cc(-c4ccc(Cl)cc4)sc3c2=O)ccc1OCCN1CCC(c2cccc(NC(C)=O)c2)CC1 — within 1.5-fold, 550 nM
- COc1ccc2nc3cc(Cl)ccc3c(Nc3ccc(O)c(CN4CC5CCC(CC5)C4)c3)c2c1 — 3.6-fold lower, 170 nM
- CCCCCCCN(Cc1ccc(OC(C)(C)C(=O)OCC)cc1)C(=O)Nc1ccccc1OC(F)(F)F — 1.6-fold higher, 970 nM
- Cc1ccccc1C1CCN(C2CCC(NC(=O)/C=C/c3cc(F)cc(F)c3)CC2)CC1 (configuration not stated) — within 1.5-fold, 830 nM
- COc1ccccc1CCNc1nc(C)cc(N[C@@H](Cc2ccccc2)C(=O)NCCCOC(C)C)n1 — within 1.5-fold, 860 nM
- COc1ccc(CN2CCC(NCc3cccc([N+](=O)[O-])c3)CC2)cc1 — within 1.5-fold, 910 nM
- COc1ccc2c(NN=Cc3cccc(C)n3)cc(-c3ccccc3)nc2c1 — within 1.5-fold, 750 nM
- CCCN(C(=O)c1ccccc1C)c1nnc(-c2ccccc2C)s1 — 1.8-fold higher, 1110 nM
- CC[C@H]1CN2CC[C@H]1C[C@H]2[C@H](O)c1cc(N2CCCC(CO)C2)nc2ccc(OC)cc12 (some centres not stated) — 7.8-fold lower, 80 nM
- COc1cc2nc(NCCc3ccccc3)nc(NCCc3ccccc3)c2cc1OC — 2.2-fold lower, 280 nM
- COC(=O)c1cccc(CNCc2ccc(-c3ccc(-c4nc5ccc(C(F)(F)F)cc5[nH]4)cc3)cc2)c1 — 2.1-fold lower, 300 nM
- O=C(NC1CCN(Cc2ccccc2)CC1)c1ccc(-c2nc3cc(Cl)c(Cl)cc3[nH]2)s1 — 2-fold lower, 310 nM
- Cc1ccc(Cl)cc1NC(=O)c1c(-c2ccccc2Cl)noc1C — 3.3-fold lower, 190 nM
- O=C(Cn1c(SCc2cccc(F)c2F)cc(=O)c2ccccc21)N(CCn1ccnc1)Cc1ccc(-c2ccc(C(F)(F)F)cc2)cc1 — within 1.5-fold, 770 nM
- Cc1ccc(NC(=O)c2ccc(CN3CCCN(CC4CCCCC4)CC3)cc2)cc1 — within 1.5-fold, 800 nM
- COc1ccc(-c2nonc2NC(=O)c2ccc(C(C)(C)C)cc2)cc1OC — within 1.5-fold, 810 nM
- COc1cc(OC)c(OC)cc1CN1CCC2(CC1)CN(Cc1ccc(Cl)c(Cl)c1)C(=O)O2 — within 1.5-fold, 810 nM
- CC[C@H](C)CNC(=O)c1ccnc(-c2ccc(CNCCCc3ccccc3)cc2)c1 — 2-fold higher, 1230 nM
- CCCNC(=O)c1cncc(-c2ccc(CNC3Cc4ccccc4C3)cc2)c1 — within 1.5-fold, 850 nM
- Cc1ccc2[nH]c3c(NCCCN(C)C)ncnc3c2c1 — within 1.5-fold, 650 nM
- CCN(CC)CCCN(CCCN(CC)CC)c1cc(C)nc(Nc2ccc(Cl)cc2)n1 — 3-fold lower, 210 nM
- COc1ccc(-c2csc3ncnc(Cl)c23)cc1OC — within 1.5-fold, 770 nM
- O=C(Nc1ccc2ccccc2n1)c1ccccc1-c1ccccc1 — within 1.5-fold, 440 nM
- Cn1c(NC(=O)C2CCC(CNC(=O)c3ccc(O)c(-c4ccc(Cl)c(Cl)c4)c3)CC2)nc2ccccc21 (configuration not stated) — within 1.5-fold, 650 nM
- COc1ccc2c(c1)S(=O)(=O)N=C(N1CCCC1c1ccc(Cl)c(Cl)c1)N2C (configuration not stated) — 2.1-fold higher, 1280 nM
